In article PMC9945182 (Chemical Research in Toxicology, 2023):
Read-outs that look alike come from different tables or passages of the source.

How the values were obtained:
Assay type in all cases: biochemical
CYP2A6 = biological target: T1, CYP2A6 (Homo sapiens, UniProt P11509); details: 10 μM inhibitor; cotinine substrate; CYP2A6 microsomes
T1 sequence (P11509 1-494): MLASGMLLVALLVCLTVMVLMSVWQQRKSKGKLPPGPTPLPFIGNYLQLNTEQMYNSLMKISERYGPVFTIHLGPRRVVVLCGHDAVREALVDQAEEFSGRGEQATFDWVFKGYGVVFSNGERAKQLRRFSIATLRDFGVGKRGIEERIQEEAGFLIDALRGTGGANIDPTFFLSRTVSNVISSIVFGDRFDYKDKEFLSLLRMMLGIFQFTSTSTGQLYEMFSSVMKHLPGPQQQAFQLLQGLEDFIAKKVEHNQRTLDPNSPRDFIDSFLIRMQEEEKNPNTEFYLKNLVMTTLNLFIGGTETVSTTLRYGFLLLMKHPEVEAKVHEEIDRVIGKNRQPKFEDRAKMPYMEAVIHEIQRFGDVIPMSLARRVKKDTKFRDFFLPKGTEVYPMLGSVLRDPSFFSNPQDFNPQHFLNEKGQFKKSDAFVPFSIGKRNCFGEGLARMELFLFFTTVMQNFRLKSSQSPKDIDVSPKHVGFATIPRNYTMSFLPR

[1] = test system: human liver microsomes (HLM); assay: Inhibition of 3HC to 3HC-Gluc formation in human liver microsomes; details: up to 100 μM CBD
UGT1A9 = biological target: T2, UGT1A9 (Homo sapiens, UniProt O60656); details: 3HC 30 mM; for decrease in 3HC-Gluc formation: UGT1A9 microsomes; for IC50: rec UGT1A9 microsomes
T2 sequence (O60656 26-530): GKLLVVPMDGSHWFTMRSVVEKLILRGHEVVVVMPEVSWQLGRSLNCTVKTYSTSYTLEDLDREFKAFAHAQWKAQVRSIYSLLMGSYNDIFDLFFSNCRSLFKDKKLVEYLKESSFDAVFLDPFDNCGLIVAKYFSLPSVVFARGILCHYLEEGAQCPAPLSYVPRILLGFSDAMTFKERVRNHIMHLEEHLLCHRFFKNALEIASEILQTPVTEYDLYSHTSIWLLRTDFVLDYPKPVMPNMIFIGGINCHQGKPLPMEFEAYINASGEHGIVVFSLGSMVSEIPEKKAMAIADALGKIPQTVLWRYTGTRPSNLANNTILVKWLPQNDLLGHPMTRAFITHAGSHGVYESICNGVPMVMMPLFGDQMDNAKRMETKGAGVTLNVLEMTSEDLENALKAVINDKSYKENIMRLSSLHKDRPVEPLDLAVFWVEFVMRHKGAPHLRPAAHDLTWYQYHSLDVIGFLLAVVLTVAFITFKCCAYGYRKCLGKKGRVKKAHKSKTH

Structure (SMILES)	inhibition of COX formation (CYP2A6)	inhibition of 3HC-Gluc formation [1]	decrease in 3HC-Gluc formation (UGT1A9; 1 μM CBD)	decrease in 3HC-Gluc formation (UGT1A9; 10 μM CBD)	IC50 (UGT1A9; IC50, 3HC-Gluc formation, 2% BSA)	IC50 (UGT1A9; IC50,u (binding-corrected IC50), 3HC-Gluc formation, IC50 × fu,inc)
C=C(C)[C@@H]1CCC(CO)=C[C@H]1c1c(O)cc(CCCCC)cc1O [7-OH-CBD, 7-hydroxy-cannabidiol]	40%					
C=C(C)[C@@H]1CCC(C)=C[C@H]1c1c(O)cc(CCCCC)cc1O [CBD, cannabidiol]		< 45%	55%	65%	9.7 ± 1.5 µM	0.37 ± 0.06 µM
